Key:
[1] = molecular target: T1, human DNA topoisomerase I (Homo sapiens, UniProt P11387); assay: DNA relaxation assay, agarose gel; type: biochemical
T1 sequence (P11387 2-765): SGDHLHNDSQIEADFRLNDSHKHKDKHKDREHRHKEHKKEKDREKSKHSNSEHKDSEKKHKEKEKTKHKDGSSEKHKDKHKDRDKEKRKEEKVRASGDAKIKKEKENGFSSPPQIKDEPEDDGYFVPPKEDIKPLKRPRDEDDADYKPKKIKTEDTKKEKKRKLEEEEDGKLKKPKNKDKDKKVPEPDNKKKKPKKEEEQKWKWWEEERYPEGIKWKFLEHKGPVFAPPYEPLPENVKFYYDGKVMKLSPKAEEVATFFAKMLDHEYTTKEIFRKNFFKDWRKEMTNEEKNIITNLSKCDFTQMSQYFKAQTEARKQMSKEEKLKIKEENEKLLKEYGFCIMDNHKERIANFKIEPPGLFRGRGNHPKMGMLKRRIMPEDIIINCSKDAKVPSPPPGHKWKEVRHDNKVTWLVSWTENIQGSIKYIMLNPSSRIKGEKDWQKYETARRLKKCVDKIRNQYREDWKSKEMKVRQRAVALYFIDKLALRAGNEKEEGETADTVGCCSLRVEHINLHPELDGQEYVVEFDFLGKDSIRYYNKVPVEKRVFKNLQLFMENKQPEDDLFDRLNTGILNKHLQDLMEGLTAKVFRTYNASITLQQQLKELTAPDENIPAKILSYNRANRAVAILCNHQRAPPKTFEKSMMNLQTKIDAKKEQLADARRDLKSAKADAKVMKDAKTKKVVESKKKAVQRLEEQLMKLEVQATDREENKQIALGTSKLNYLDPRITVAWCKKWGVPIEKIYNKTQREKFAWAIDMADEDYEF

[2] = molecular target: human DNA topoisomerase II alpha (Homo sapiens, UniProt P11388); assay: DNA relaxation assay, agarose gel; type: biochemical
human DNA topoisomerase II alpha, sequence (P11388 whole entry): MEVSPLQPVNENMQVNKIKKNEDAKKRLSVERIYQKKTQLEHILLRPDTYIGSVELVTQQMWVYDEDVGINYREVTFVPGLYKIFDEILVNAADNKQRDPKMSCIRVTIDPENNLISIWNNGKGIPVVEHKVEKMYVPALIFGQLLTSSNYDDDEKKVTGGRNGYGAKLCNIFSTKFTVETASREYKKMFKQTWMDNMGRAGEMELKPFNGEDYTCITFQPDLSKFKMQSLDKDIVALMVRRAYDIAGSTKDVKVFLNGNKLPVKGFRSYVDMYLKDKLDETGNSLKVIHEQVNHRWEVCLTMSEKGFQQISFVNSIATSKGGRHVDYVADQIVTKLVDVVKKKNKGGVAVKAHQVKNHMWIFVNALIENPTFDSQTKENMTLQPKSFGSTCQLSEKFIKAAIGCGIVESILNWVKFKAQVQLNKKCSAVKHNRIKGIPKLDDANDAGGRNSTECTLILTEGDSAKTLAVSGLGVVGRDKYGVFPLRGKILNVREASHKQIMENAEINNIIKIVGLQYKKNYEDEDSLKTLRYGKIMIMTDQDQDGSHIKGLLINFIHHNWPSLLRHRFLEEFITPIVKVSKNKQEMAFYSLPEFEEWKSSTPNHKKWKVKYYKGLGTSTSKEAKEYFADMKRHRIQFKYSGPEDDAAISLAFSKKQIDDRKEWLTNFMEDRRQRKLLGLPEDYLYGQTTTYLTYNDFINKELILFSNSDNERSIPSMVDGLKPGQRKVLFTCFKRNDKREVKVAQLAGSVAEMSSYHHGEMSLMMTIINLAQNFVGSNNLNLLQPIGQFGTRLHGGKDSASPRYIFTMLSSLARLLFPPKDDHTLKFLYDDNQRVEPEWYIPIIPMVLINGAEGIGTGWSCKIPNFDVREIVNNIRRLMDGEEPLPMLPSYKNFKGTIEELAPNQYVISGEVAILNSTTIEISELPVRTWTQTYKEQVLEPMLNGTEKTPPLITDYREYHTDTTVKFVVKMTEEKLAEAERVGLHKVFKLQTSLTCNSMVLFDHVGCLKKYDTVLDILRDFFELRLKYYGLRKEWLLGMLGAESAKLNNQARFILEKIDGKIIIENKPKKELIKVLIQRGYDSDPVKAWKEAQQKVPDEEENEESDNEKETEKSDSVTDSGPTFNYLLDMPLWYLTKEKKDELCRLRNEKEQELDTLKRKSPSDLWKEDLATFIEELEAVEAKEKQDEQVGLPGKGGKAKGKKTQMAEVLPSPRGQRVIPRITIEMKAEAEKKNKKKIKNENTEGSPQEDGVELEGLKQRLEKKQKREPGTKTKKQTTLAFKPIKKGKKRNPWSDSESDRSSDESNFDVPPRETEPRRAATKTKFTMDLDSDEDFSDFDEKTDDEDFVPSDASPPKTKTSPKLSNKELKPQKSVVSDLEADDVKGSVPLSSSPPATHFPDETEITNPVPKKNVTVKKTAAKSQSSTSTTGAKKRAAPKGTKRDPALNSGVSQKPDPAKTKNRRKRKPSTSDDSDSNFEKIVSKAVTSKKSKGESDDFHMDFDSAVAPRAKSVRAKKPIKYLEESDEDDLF

SMILES | DNA relaxation assay, agarose gel (5 and 10 μM) [1] | DNA relaxation assay, agarose gel (5 and 10 μM) [2]
CC[C@@]1(O)C(=O)OCc2c1cc1n(c2=O)Cc2cc3ccccc3nc2-1 [CPT, camptothecin] | CPT (a control for topoisomerase I inhibition) and DOX (a control for topoisomerase II inhibition) at two different concentrations | –
COc1cccc2c1C(=O)c1c(O)c3c(c(O)c1C2=O)C[C@@](O)(C(=O)CO)C[C@@H]3O[C@H]1C[C@H](N)[C@H](O)[C@H](C)O1 [DOX, doxorubicin] | – | These showed no DNA migration, indicating complete inhibition of the respective topoisomerase enzymes.

Source: PMC6644896 (ACS Omega, 2018)
